Data on 1 molecule can be found in ChEMBL document CHEMBL1133488 (Bioorg Med Chem Lett, 2000).

In the experiment the target is T1, Scytalone dehydratase (Magnaporthe oryzae (strain 70-15 / FGSC 8958) (Rice blast fungus)(Pyricularia oryzae), UniProt P56221).
T1 sequence (P56221 whole entry): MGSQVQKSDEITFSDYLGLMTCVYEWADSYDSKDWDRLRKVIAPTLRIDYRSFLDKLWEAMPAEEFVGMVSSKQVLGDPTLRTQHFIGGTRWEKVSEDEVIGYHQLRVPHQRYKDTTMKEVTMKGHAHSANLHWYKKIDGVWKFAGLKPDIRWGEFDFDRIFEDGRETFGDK
The experiment is described as follows: The compound was evaluated for its binding affinity against wild type scytalone dehydratase (SD). Details: species or system Pyricularia grisea.

Turning to `CC(C)NC(=O)c1cc(F)ccc1O`, affinity was put at a Ki of 450 nM.
